Assay results from patent publication US20260347373A1, “HETEROCYCLIC COMPOUNDS, COMPOSITIONS THEREOF, AND METHODS OF TREATMENT THEREWITH” (BeOne Medicines I GmbH, priority 2023, published 2026).
Read-outs that look alike come from different tables or passages of the source.

What was measured:
[1] = biological target: WT KRAS (Homo sapiens, UniProt P01116); assay: KRAS WT Probe Displacement Assay (TR-FRET, GDP-loaded); type: binding
Source text: (§1) The synthetic routes of probe 1 and 2, which have been disclosed in PCT/CN2022/070676, are hereby incorporated herein.

[2] = biological target: KRAS G12D (Homo sapiens, UniProt P01116, G12D); assay: KRAS G12D Probe Displacement Assay (TR-FRET, GDP-loaded); type: binding
Source text: as §1

[3] = KRAS WT, read-out: KRAS^WT Probe Displacement Assay IC50
[4] = KRAS G12D, read-out: KRAS^G12D Probe Displacement Assay IC50

KRAS G12D, sequence (P01116 1-188 isoform P01116-2 G12D): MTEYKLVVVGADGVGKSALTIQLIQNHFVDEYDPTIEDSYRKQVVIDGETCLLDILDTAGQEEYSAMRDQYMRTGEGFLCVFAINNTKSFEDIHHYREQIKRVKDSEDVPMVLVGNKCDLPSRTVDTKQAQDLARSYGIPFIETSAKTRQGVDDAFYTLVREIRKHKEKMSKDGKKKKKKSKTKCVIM
WT KRAS, sequence (P01116 1-188 isoform P01116-2): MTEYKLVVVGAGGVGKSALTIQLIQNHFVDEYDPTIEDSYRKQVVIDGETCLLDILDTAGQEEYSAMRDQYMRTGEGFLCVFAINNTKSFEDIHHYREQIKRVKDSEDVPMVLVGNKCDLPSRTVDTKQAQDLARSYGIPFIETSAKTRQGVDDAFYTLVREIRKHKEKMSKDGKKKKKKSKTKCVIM

With `[2H]C([2H])([2H])N1CC[C@H](OC)[C@H]1[C@H](C)Oc1nc2c3c(nc(-c4cc(N)cc(C)c4C(F)(F)F)c(F)c3n1)OCC[C@@H]1[C@@H]3CC[C@H](CN21)N3` [Example 142, 3-((6aR,7S,10R)-1-fluoro-13-((S)-1-((2R,3S)-3-methoxy-1-(methyl-d3)pyrrolidin-2-yl)ethoxy)-5,6,6a,7,8,9,10,11-octahydro-4-oxa-3,11a,12,14,15-pentaaza-7,10-methano-cyclohepta[4,5]cycloocta [1,2,3-de]naphthalen-2-yl)-5-methyl-4-(trifluoromethyl)aniline] the IC50 [1, 3] was 3 to 1000 nM and the IC50 [2, 4] was under 0.3 nM.

`Cc1cc(N)cc(-c2nc3c4c(nc(OCC5(CN6CCOC7(CCC7)C6)CC5)nc4c2F)N2C[C@H]4CC[C@H](N4)[C@H]2CCO3)c1C(F)(F)F` [Example 121, 3-((6aR,7S,10R)-13-((1-((5-oxa-8-azaspiro[3.5]nonan-8-yl)methyl)cyclopropyl)methoxy)-1-fluoro-5,6,6a,7,8,9,10,11-octahydro-4-oxa-3,11a,12,14,15-pentaaza[7,10]methanocyclohepta [4,5]cycloocta[1,2,3-de]naphthalen-2-yl)-5-methyl-4-(trifluoromethyl)aniline] gave an IC50 [1, 3] of 3 to 1000 nM and an IC50 [2, 4] of under 0.3 nM.

With `Cc1cc(N)cc(-c2nc3c4c(nc(OCC5(CN6C[C@@H](C)O[C@@H](C)C6)CC5(F)F)nc4c2F)N2C[C@H]4CC[C@H](N4)[C@H]2CCO3)c1C(F)(F)F` (single isomer, unassigned) [Example 22] the IC50 [1, 3] was 3 to 1000 nM and the IC50 [2, 4] was under 0.3 nM.

In the case of `Cc1cc(N)cc(-c2nc3c4c(nc(O[C@@H](C)[C@@H]5CC6(CC6)CN5C)nc4c2F)N2C[C@H]4CC[C@H](N4)[C@H]2CCO3)c1C(F)(F)F` [Example 143, 3-((6aR,7S,10R)-1-fluoro-13-((S)-1-((S)-5-methyl-5-azaspiro[2.4]heptan-6-yl)ethoxy)-5,6,6a,7,8,9,10,11-octahydro-4-oxa-3,11a,12,14,15-pentaaza[7,10]methanocyclohepta [4,5]cycloocta[1,2,3-de]naphthalen-2-yl)-5-methyl-4-(trifluoromethyl)aniline], the IC50 [1, 3] is reported as 3 to 1000 nM and the IC50 [2, 4] is reported as under 0.3 nM.

In the case of `Cc1cc(N)cc(-c2nc3c4c(nc(OCC5(CN6CCC(C(F)(F)F)CC6)CC5)nc4c2F)N2C[C@H]4CC[C@H](N4)[C@H]2CCO3)c1C(F)(F)F` [Example 113, 3-((6aR,7S,10R)-1-fluoro-13-((1-((4-(trifluoromethyl)piperidin-1-yl)methyl)cyclopropyl)methoxy)-5,6,6a,7,8,9,10,11-octahydro-4-oxa-3,11a,12,14,15-pentaaza-7,10-methanocyclohepta [4,5]cycloocta [1,2,3-de]naphthalen-2-yl)-5-methyl-4-(trifluoromethyl) aniline], the IC50 ([1]; KRAS^WT Probe Displacement Assay IC50, KRAS WT) is reported as 0.3 to 3 nM and the IC50 ([2]; KRAS^G12D Probe Displacement Assay IC50, KRAS G12D) is reported as under 0.3 nM.

In the case of `Cc1cc(N)cc(-c2nc3c4c(nc(OCC5(CN6CCC[C@H]6C)CC5)nc4c2F)N2C[C@H]4CC[C@H](N4)[C@H]2CCO3)c1C(F)(F)F` [Example 122, 3-((6aR,7S,10R)-1-fluoro-13-((1-(((R)-2-methylpyrrolidin-1-yl)methyl)cyclopropyl)methoxy)-5,6,6a,7,8,9, 10,11-octahydro-4-oxa-3,11a,12,14,15-pentaaza-7,10-methanocyclohepta [4,5]cycloocta [1,2,3-de]naphthalen-2-yl)-5-methyl-4-(trifluoromethyl)aniline], the IC50 [1, 3] is reported as 3 to 1000 nM and the IC50 [2, 4] is reported as under 0.3 nM.

`Nc1cc(Cl)c(C(F)(F)F)c(-c2nc3c4c(nc(OCC5(CN6CCC(=C(F)F)CC6)CC5)nc4c2F)N2C[C@H]4CC[C@H](N4)[C@H]2CCO3)c1` [Example 148, 3-chloro-5-((6aR,7S,10R)-13-((1-((4-(difluoromethylene)piperidin-1-yl)methyl)cyclopropyl)methoxy)-1-fluoro-5,6,6a,7,8,9,10,11-octahydro-4-oxa-3,11a,12,14,15-pentaaza-7,10-methano-cyclohepta[4,5]cycloocta [1,2,3-de]naphthalen-2-yl)-4-(trifluoromethyl)aniline] was tested, and the IC50 [1, 3] was 0.3 to 3 nM and the IC50 [2, 4] was under 0.3 nM.
